Entries after “also recorded” stand apart in the source; their conditions may differ.
Experiments:
[1] = tested on: primary human keratinocytes; test: CXCL14 and CCL5 protein concentration by ELISA assay in primary human keratinocytes; type: cell-based
Experimental: Another objective of the present study was to identify the effect of ivermectin on the CXCL14 and CCL5 protein level of
(§1) To do this, primary human keratinocytes were cultured with various concentrations of EGFR inhibitor (in this case erlotinib) each with +/− TNF-α/IL-1β, various concentrations of ivermectin alone each with +/− TNF-α/IL-1β various concentrations of erlotinib and of ivermectin each with +/− TNF-α/IL-1β. The addition of the pro-inflammatory cytokines TNFα and IL1β makes it possible to mimic the skin inflammation.
(§2) The various concentrations used were the following: • Erlotinib: 0-0.1 μM-1 μM-10 μM (each with +/− TNF-α/IL-1β) • Ivermectin: 0-0.1 μM-1 μM-10 μM (each with +/− TNF-α/IL-1β) • Co-stimulation: • Erlotinib (0.1 μM)+Ivermectin (1 μM) (+/− TNF-α/IL-1β) • Erlotinib (0.1 μM)+Ivermectin (5 μM) (+/− TNF-α/IL-1β) • Erlotinib (1 μM)+Ivermectin (1 μM)+/− TNF-α/IL-1β) • Erlotinib (1 μM)+Ivermectin (5 μM) (+/− TNF-α/IL-1β)
(§3) The expression of the CXCL14, CCL5 (chemokines), RNase 7, HBD3 and LL37 (antimicrobial peptides) genes was analyzed by quantitative PCR. The protein concentration of the chemokines CXCL14 and CCL5 was quantified using an ELISA assay.

[2] = tested on: primary human keratinocytes; test: Gene expression by quantitative PCR in primary human keratinocytes treated with erlotinib and/or ivermectin +/- TNF-α/IL-1β; type: cell-based
Experimental: A study was carried out on primary human keratinocytes in vitro, in order to determine the effect of ivermectin on the regulation of genes of which the expression has been identified as being modulated by EGFR inhibitors. Said genes identified are the pro-inflammatory chemokines CCL2, CCL5, CCL27 and CXCL14 and the cytokines of the IL-1β family, but also the genes of antimicrobial peptides RNase7, HBD3 and LL37.
as §1, §2, §3

[3] = erlotinib and TNFα/IL1β, without ivermectin
[4] = erlotinib without ivermectin, listed as erlitonib
[5] = ivermectin in combination with erlotinib, +/- TNFα/IL1β

SMILES | CCL5 protein concentration (ELISA) [1, 3] | CXCL14 protein concentration (ELISA) [1, 3] | expression of CCL5 (gene, quantitative PCR) ([2]; erlotinib without ivermectin) | expression of CXCL14 (gene, quantitative PCR) ([2]; erlotinib without ivermectin) | expression of HBD3 (gene, quantitative PCR) ([2]; erlotinib without ivermectin) | expression of RNase 7 (gene, quantitative PCR) ([2]; erlotinib without ivermectin) | expression of CCL5 (gene, quantitative PCR) [2, 4] | expression of CXCL14 (gene, quantitative PCR) [2, 4] | CXCL14 protein level (ELISA) ([1]; ivermectin in combination with erlotinib and TNFα/IL1β) | expression of CCL5 (gene, quantitative PCR) [2, 5] | expression of CXCL14 (gene, quantitative PCR) [2, 5] | expression of HBD3 (gene, quantitative PCR) [2, 5] | expression of RNase 7 (gene, quantitative PCR) ([2]; ivermectin in combination with erlotinib, various concentrations)
C#Cc1cccc(Nc2ncnc3cc(OCCOC)c(OCCOC)cc23)c1 [erlotinib] | increase | increase | induction | induction | decreased | greatly decreased | overexpression | overexpression |  |  |  |  | 
CC[C@H](C)[C@H]1O[C@]2(CC[C@@H]1C)C[C@@H]1C[C@@H](C/C=C(\C)[C@@H](O[C@H]3C[C@H](OC)[C@@H](O[C@H]4C[C@H](OC)[C@@H](O)[C@H](C)O4)[C@H](C)O3)[C@@H](C)/C=C/C=C3\CO[C@@H]4[C@H](O)C(C)=C[C@@H](C(=O)O1)[C@]34O)O2 [ivermectin] |  |  |  |  |  |  |  |  | decrease the protein level | significant modification of the induction; also recorded: reduce the overexpression | significant modification of the induction; also recorded: reduce the overexpression | induce the expression | re-establish the expression of RNase 7 greatly decreased in the presence of erlotinib but also to induce a strong expression thereof

— patent publication US10328094B2, “Compound from the avermectin family for treating and/or preventing folliculitis” (GALDERMA SA, priority 2015, dated 2019)
